Results from US20250263424A1, “KRAS INHIBITORS” (Bristol-Myers Squibb Company, priority 2022, published 2025).

These compounds were tested against Recombinant GMPPNP-loaded KRAS G12C (KRAS-G12C(ON), active form) (Homo sapiens, UniProt P01116, G12C) (assay: KRAS G12C RAF Disruption Assay (HTRF)). Settings: GMPPNP-loaded KRAS G12C 5 nM, GST-RAF1 RBD 9 nM, values given in μM, read-out: KRASG12C RAF Disruption Assay (IC50).
Recombinant GMPPNP-loaded KRAS G12C (KRAS-G12C(ON), active form), sequence (P01116 1-188 isoform P01116-2 G12C): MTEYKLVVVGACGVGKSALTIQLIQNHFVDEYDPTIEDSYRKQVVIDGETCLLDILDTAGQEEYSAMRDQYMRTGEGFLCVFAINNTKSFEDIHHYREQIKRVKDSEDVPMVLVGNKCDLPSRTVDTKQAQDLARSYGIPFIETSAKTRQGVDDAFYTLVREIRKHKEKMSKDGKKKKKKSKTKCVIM
Type: biochemical
Experimental: This is a functional assay that measures activity of compounds against […]., the active form of KRAS G12C. Recombinant GMPPNP-loaded KRAS G12C (5 nM) was treated with compound at room temperature for 20 minutes in assay buffer (50 mM Tris pH 7.5, 100 mM NaCl, 1 mM MgCl2, 1 mM DTT, 100 μg/ml BSA). Recombinant GST-RAF1 RBD (9 nM) was added, and the reaction mixture was incubated for 20 minutes. SA-Tb (0.25 nM) was added, and the reaction mixture was incubated for 3 hours. HTRF signal was measured (PerkinElmer Envision), the signal ratio (λem 520/λem 495) was calculated, and IC50 values were calculated from the dose-response curve.
In the case of O=C(/C(F)=C/c1nccs1)N1[C@@H]2CC[C@H]1CN(c1nc(OC[C@@]34CCCN3C[C@H](F)C4)nc3c(F)c(-c4cccc5cccc(Cl)c45)ccc13)C2 [Example 10, (Z)-1-((1R,5S)-3-(7-(8-chloronaphthalen-1-yl)-8-fluoro-2-(((2R,7aS)-2-fluorotetrahydro-1H-pyrrolizin-7a(5H)-yl)methoxy)quinazolin-4-yl)-3,8-diazabicyclo[3.2.1]octan-8-yl)-2-fluoro-3-(thiazol-2-yl)prop-2-en-1-one], the IC50 was 93 µM.
Cc1cc(N)nc(-c2c(Cl)cc3c(N4CC5CN(C(=O)/C(F)=C/c6nccs6)C5C4)nc(OC[C@]45CCCN4C[C@H](F)C5)nc3c2F)c1C(F)(F)F (single isomer, unassigned) [Example 15, Isomer 1] gave an IC50 of 93.8 µM.
Compound Cc1cc(N)nc(-c2c(Cl)cc3c(N4CCC5C4CCN5C(=O)/C(F)=C/c4nccs4)nc(OC[C@]45CCCN4C[C@H](F)C5)nc3c2F)c1C(F)(F)F (single isomer, unassigned) [Example 25, Isomer 2] has an IC50 of 67.6 µM.
Cc1cc(N)nc(-c2c(Cl)cc3c(N4CC5CCC(C4)N5C(=O)/C(F)=C/c4ccccn4)nc(OC[C@@]45CCCN4C[C@H](F)C5)nc3c2F)c1C(F)(F)F [Example 7, (Z)-1-((1R,5S)-3-((7M)-7-(6-amino-4-methyl-3-(trifluoromethyl)pyridin-2-yl)-6-chloro-8-fluoro-2-(((2R,7aS)-2-fluorotetrahydro-1H-pyrrolizin-7a(5H)-yl)methoxy)quinazolin-4-yl)-3,8-diazabicyclo[3.2.1]octan-8-yl)-2-fluoro-3-(pyridin-2-yl)prop-2-en-1-one] showed an IC50 of 2 µM.

Same assay, conditions: GMPPNP-loaded KRAS G12C 5 nM, GST-RAF1 RBD 9 nM, values in nM, read-out: KRASG12C RAF Disruption Assay (IC50)
For CN1CCC[C@H]1COc1nc(N2CCN(C(=O)/C(F)=C/c3cnccn3)[C@@H](CC#N)C2)c2ccc(-c3cc(Cl)ccc3OC(F)(F)F)c(F)c2n1 [Example 68, 2-((S)-4-(7-(5-chloro-2-(trifluoromethoxy)phenyl)-8-fluoro-2-(((S)-1-methylpyrrolidin-2-yl)methoxy)quinazolin-4-yl)-1-((Z)-2-fluoro-3-(pyrazin-2-yl)acryloyl)piperazin-2-yl)acetonitrile], the IC50 was 20.4 µM.
C#Cc1cccc2cccc(-c3ccc4c(N5CCN(C(=O)/C(F)=C/c6cnccn6)[C@@H](CC#N)C5)nc(OC[C@@]56CCCN5C[C@H](F)C6)nc4c3F)c12 [Example 87, 2-((S)-4-(7-(8-ethynylnaphthalen-1-yl)-8-fluoro-2-(((2R,7aS)-2-fluorotetrahydro-1H-pyrrolizin-7a(5H)-yl)methoxy)quinazolin-4-yl)-1-((Z)-2-fluoro-3-(pyrazin-2-yl)acryloyl)piperazin-2-yl)acetonitrile] gave an IC50 of 0.042 µM.
CCc1cccc2cccc(-c3ccc4c(N5CCN(C(=O)/C(F)=C/c6cnccn6)[C@@H](CC#N)C5)nc(OC[C@@H]5CCCN5C)nc4c3F)c12 [Example 58, 2-((S)-4-(7-(8-ethylnaphthalen-1-yl)-8-fluoro-2-(((S)-1-methylpyrrolidin-2-yl)methoxy)quinazolin-4-yl)-1-((Z)-2-fluoro-3-(pyrazin-2-yl)acryloyl)piperazin-2-yl)acetonitrile] was tested, and the IC50 was 2.4 µM.
CN1CCC[C@H]1COc1nc(N2CCN(C(=O)/C(F)=C/c3nccs3)[C@@H](CC#N)C2)c2ccc(-c3cccc4cccc(Cl)c34)c(F)c2n1 [Example 33, 2-((S)-1-((Z)-2-fluoro-3-(thiazol-2-yl)acryloyl)-4-(8-fluoro-7-(8-chloronaphthalen-1-yl)-2-(((S)-1-methylpyrrolidin-2-yl)methoxy)quinazolin-4-yl)piperazin-2-yl)acetonitrile] showed an IC50 of 0.076 µM.
N#CC[C@H]1CN(c2nc(OC[C@@]34CCCN3C[C@H](F)C4)nc3c(F)c(-c4cc(O)cc5ccccc45)ccc23)CCN1C(=O)/C(F)=C/c1ncccn1 [Example 40, 2-((S)-4-(8-fluoro-2-(((2R,7aS)-2-fluorotetrahydro-1H-pyrrolizin-7a(5H)-yl)methoxy)-7-(3-hydroxynaphthalen-1-yl)quinazolin-4-yl)-1-((Z)-2-fluoro-3-(pyrimidin-2-yl)acryloyl)piperazin-2-yl)acetonitrile] gave an IC50 of 0.011 µM.
Work on CN1CCC[C@H]1COc1nc(N2C[C@H]3CC[C@@H](C2)N3C(=O)/C(F)=C/c2ccccn2)c2ccc(-c3ccc(F)c4sc(N)nc34)c(F)c2n1 [Example 80, (Z)-1-((1R,5S)-3-(7-(2-amino-7-fluorobenzo[d]thiazol-4-yl)-8-fluoro-2-(((S)-1-methylpyrrolidin-2-yl)methoxy)quinazolin-4-yl)-3,8-diazabicyclo[3.2.1]octan-8-yl)-2-fluoro-3-(pyridin-2-yl)prop-2-en-1-one] yielded an IC50 of 0.55 µM.
Compound CN1CCC[C@H]1COc1nc(N2CCN(C(=O)/C(F)=C/c3nccs3)[C@@H](CC#N)C2)c2ccc(-c3cc(Cl)ccc3OC(F)(F)F)c(F)c2n1 [Example 66, 2-((S)-4-(7-(5-chloro-2-(trifluoromethoxy)phenyl)-8-fluoro-2-(((S)-1-methylpyrrolidin-2-yl)methoxy)quinazolin-4-yl)-1-((Z)-2-fluoro-3-(thiazol-2-yl)acryloyl)piperazin-2-yl)acetonitrile] has an IC50 of 3.2 µM.
With COCCCN1CCC(Oc2nc(N3CCN(C(=O)/C(F)=C/c4nccs4)[C@@H](CC#N)C3)c3ccc(-c4cccc5cccc(Cl)c45)c(F)c3n2)CC1 [Example 74, (S,Z)-2-(4-(7-(8-chloronaphthalen-1-yl)-8-fluoro-2-((1-(3-methoxypropyl)piperidin-4-yl)oxy)quinazolin-4-yl)-1-(2-fluoro-3-(thiazol-2-yl)acryloyl)piperazin-2-yl)acetonitrile] the IC50 was 1.5 µM.
CN1CCC[C@H]1COc1nc(N2CCN(C(=O)/C(F)=C/c3cccnn3)[C@@H](CC#N)C2)c2ccc(-c3c(O)cccc3F)c(F)c2n1 [Example 57] showed an IC50 of 0.13 µM.
With CN1CCC[C@H]1COc1nc(N2CCN(C(=O)/C(F)=C/c3nccs3)CC2)c2ccc(-c3cc(O)cc4ccccc34)c(F)c2n1 [Example 29, (S,Z)-2-fluoro-1-(4-(8-fluoro-7-(3-hydroxynaphthalen-1-yl)-2-((1-methylpyrrolidin-2-yl)methoxy)quinazolin-4-yl)piperazin-1-yl)-3-(thiazol-2-yl)prop-2-en-1-one] the IC50 was 0.18 µM.
Cc1ccc2[nH]ncc2c1-c1ccc2c(N3CCN(C(=O)/C(F)=C/c4ccccn4)[C@@H](CC#N)C3)nc(OC[C@@H]3CCCN3C)nc2c1F [Example 50, 2-((2S)-1-((Z)-2-fluoro-3-(pyridin-2-yl)acryloyl)-4-(8-fluoro-7-(5-methyl-1H-indazol-4-yl)-2-(((S)-1-methylpyrrolidin-2-yl)methoxy)quinazolin-4-yl)piperazin-2-yl)acetonitrile] showed an IC50 of 0.1 µM.
C#Cc1cccc2cccc(-c3ccc4c(N(C)[C@@H]5CCN(C(=O)/C(F)=C/c6nccs6)C5)nc(OC[C@@]56CCCN5C[C@H](F)C6)nc4c3F)c12 [Example 82, (Z)-1-((R)-3-((7-(8-ethynylnaphthalen-1-yl)-8-fluoro-2-(((2R,7aS)-2-fluorotetrahydro-1H-pyrrolizin-7a(5H)-yl)methoxy)quinazolin-4-yl)(methyl)amino)pyrrolidin-1-yl)-2-fluoro-3-(thiazol-2-yl)prop-2-en-1-one] was tested, and the IC50 was 0.04 µM.
C#Cc1cccc2cccc(-c3ccc4c(N5CCN(C(=O)/C(F)=C/c6nccs6)C[C@@H]5C)nc(OC[C@@]56CCCN5C[C@H](F)C6)nc4c3F)c12 [Example 89, (Z)-1-((S)-4-(7-(8-ethynylnaphthalen-1-yl)-8-fluoro-2-(((2R,7aS)-2-fluorotetrahydro-1H-pyrrolizin-7a(5H)-yl)methoxy)quinazolin-4-yl)-3-methylpiperazin-1-yl)-2-fluoro-3-(thiazol-2-yl)prop-2-en-1-one] showed an IC50 of 0.38 µM.
Work on Cc1cc(N)nc(-c2c(Cl)cc3c(N4C[C@]5(NC(=O)/C(F)=C/c6ccccn6)CC[C@H]4C5)nc(OC[C@]45CCCN4C[C@H](F)C5)nc3c2F)c1C(F)(F)F (atropisomer, axis not shown; (M)) [Example 43, (2Z)-N-[(1S,4S)-2-[(7M)-2-{[(2R,7aR)-2-fluoro-hexahydro-1H-pyrrolizin-7a-yl]methoxy}-7-[6-amino-4-methyl-3-(trifluoromethyl)pyridin-2-yl]-6-chloro-8-fluoroquinazolin-4-yl]-2-azabicyclo[2.2.1]heptan-4-yl]-2-fluoro-3-(pyridin-2-yl)prop-2-enamide] yielded an IC50 of 0.19 µM.
Work on C#Cc1c(F)ccc2cc(O)cc(-c3ccc4c(N5C[C@H]6CC[C@@H](C5)N6C(=O)/C(F)=C/c5cccc(C)n5)nc(OC[C@@H]5CCCN5C)nc4c3F)c12 [Example 35, (Z)-1-((1R,5S)-3-(7-(8-ethynyl-7-fluoro-3-hydroxynaphthalen-1-yl)-8-fluoro-2-(((S)-1-methylpyrrolidin-2-yl)methoxy)quinazolin-4-yl)-3,8-diazabicyclo[3.2.1]octan-8-yl)-2-fluoro-3-(6-methylpyridin-2-yl)prop-2-en-1-one] yielded an IC50 of 0.29 µM.
With COc1ccc(Cl)cc1-c1ccc2c(N3CCN(C(=O)/C(F)=C/c4cnccn4)[C@@H](CC#N)C3)nc(OC[C@@H]3CCCN3C)nc2c1F [Example 64] the IC50 was 61 µM.
CN1CCC[C@H]1COc1nc(N2CCN(C(=O)/C(F)=C/c3ccccn3)CC2)c2ccc(-c3cc(O)cc4ccccc34)c(F)c2n1 [Example 28, (S,Z)-2-fluoro-1-(4-(8-fluoro-7-(3-hydroxynaphthalen-1-yl)-2-((1-methylpyrrolidin-2-yl)methoxy)quinazolin-4-yl)piperazin-1-yl)-3-(pyridin-2-yl)prop-2-en-1-one] showed an IC50 of 0.35 µM.
